Data from the supplement of paper PMC10307832.

Tests used:
Assay in all cases: relative viability (nuclei count vs DMSO), 5 days (fraction); higher = more cells survive
A-427 = tested on: A-427
Method in brief: (§1)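 Values are medians from duplicate plates. Each reflects relative viability, defined as the nuclei count of treated wells over that of vehicle wells. Lung cancer cell lines in 1536-well plates were pin-tool dosed one day after seeding with one drug alone or with a fixed anchor-drug dose plus five library-drug doses (not always all listed) in √10 steps, then fixed, stained and imaged at 4× after 5 days.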

ABC-1 = tested on: ABC-1
Method in brief: as §1

COR-L23 = tested on: COR-L23
Method in brief: as §1

ChaGo-K-1 = tested on: ChaGo-K-1
Method in brief: as §1

EMC-BAC-2 = tested on: EMC-BAC-2
Method in brief: as §1

HARA = tested on: HARA
Method in brief: as §1

HCC-15 = tested on: HCC-15
Method in brief: as §1

HCC-366 = tested on: HCC-366
Method in brief: as §1

HCC-78 = tested on: HCC-78
Method in brief: as §1

LC-2-ad = tested on: LC-2-ad
Method in brief: as §1

NCI-H1734 = tested on: NCI-H1734
Method in brief: as §1

NCI-H1993 = tested on: NCI-H1993
Method in brief: as §1

NCI-H2009 = tested on: NCI-H2009
Method in brief: as §1

NCI-H2023 = tested on: NCI-H2023
Method in brief: as §1

NCI-H2126 = tested on: NCI-H2126
Method in brief: as §1

NCI-H2228 = tested on: NCI-H2228
Method in brief: as §1

NCI-H23 = tested on: NCI-H23
Method in brief: as §1

NCI-H2405 = tested on: NCI-H2405
Method in brief: as §1

NCI-H838 = tested on: NCI-H838
Method in brief: as §1

SK-LU-1 = tested on: SK-LU-1
Method in brief: as §1

UMC-11 = tested on: UMC-11
Method in brief: as §1

Q: Which results are given for O=C(O)c1ccc(-c2c[nH]c3ncc(-c4ccccc4)cc23)cc1C1CCCC1 + CC(C)C[C@H](NC(=O)[C@H](Cc1ccccc1)NC(=O)c1cnccn1)B(O)O [Bortezomib] (partner 0.002 µM)?
A: relative viability (A-427; first compound 0.04 µM): 0.947; relative viability (A-427; first compound 0.1265 µM): 0.949; relative viability (A-427; first compound 0.4 µM): 1.07; relative viability (A-427; first compound 1.265 µM): 0.849; relative viability (ABC-1; first compound 0.04 µM): 0.264; relative viability (ABC-1; first compound 0.1265 µM): 0.299; relative viability (ABC-1; first compound 0.4 µM): 0.274; relative viability (ABC-1; first compound 1.265 µM): 0.251; relative viability (COR-L23; first compound 0.04 µM): 0.962; relative viability (COR-L23; first compound 0.1265 µM): 1.16; relative viability (COR-L23; first compound 0.4 µM): 0.906; relative viability (COR-L23; first compound 1.265 µM): 0.622; relative viability (ChaGo-K-1; first compound 0.04 µM): 1.08; relative viability (ChaGo-K-1; first compound 0.1265 µM): 1.16; relative viability (ChaGo-K-1; first compound 0.4 µM): 0.917; relative viability (ChaGo-K-1; first compound 1.265 µM): 1.21; relative viability (EMC-BAC-2; first compound 0.04 µM): 1.02; relative viability (EMC-BAC-2; first compound 0.1265 µM): 1.16; relative viability (EMC-BAC-2; first compound 0.4 µM): 1.02; relative viability (EMC-BAC-2; first compound 1.265 µM): 1.04; relative viability (HARA; first compound 0.04 µM): 1.05; relative viability (HARA; first compound 0.1265 µM): 1.28; relative viability (HARA; first compound 0.4 µM): 1.1; relative viability (HARA; first compound 1.265 µM): 1.08; relative viability (HCC-15; first compound 0.04 µM): 0.985; relative viability (HCC-15; first compound 0.1265 µM): 1.05; relative viability (HCC-15; first compound 0.4 µM): 1.08; relative viability (HCC-15; first compound 1.265 µM): 0.731; relative viability (HCC-366; first compound 0.04 µM): 1.05; relative viability (HCC-366; first compound 0.1265 µM): 1.12; relative viability (HCC-366; first compound 0.4 µM): 1.03; relative viability (HCC-366; first compound 1.265 µM): 1.06; relative viability (HCC-78; first compound 0.04 µM): 0.477; relative viability (HCC-78; first compound 0.1265 µM): 0.473; relative viability (HCC-78; first compound 0.4 µM): 0.436; relative viability (HCC-78; first compound 1.265 µM): 0.495; relative viability (LC-2-ad; first compound 0.04 µM): 1.04; relative viability (LC-2-ad; first compound 0.1265 µM): 1.1; relative viability (LC-2-ad; first compound 0.4 µM): 1.02; relative viability (LC-2-ad; first compound 1.265 µM): 0.779; relative viability (NCI-H1734; first compound 0.04 µM): 1.1; relative viability (NCI-H1734; first compound 0.1265 µM): 1.02; relative viability (NCI-H1734; first compound 0.4 µM): 0.83; relative viability (NCI-H1734; first compound 1.265 µM): 0.785; relative viability (NCI-H1993; first compound 0.04 µM): 1.18; relative viability (NCI-H1993; first compound 0.4 µM): 1.14; relative viability (NCI-H1993; first compound 1.265 µM): 0.871; relative viability (NCI-H2009; first compound 0.04 µM): 0.997; relative viability (NCI-H2009; first compound 0.1265 µM): 0.966; relative viability (NCI-H2009; first compound 0.4 µM): 0.942; relative viability (NCI-H2009; first compound 1.265 µM): 0.794; relative viability (NCI-H2023; first compound 0.04 µM): 1.04; relative viability (NCI-H2023; first compound 0.1265 µM): 1.08; relative viability (NCI-H2023; first compound 0.4 µM): 1.09; relative viability (NCI-H2023; first compound 1.265 µM): 0.699; relative viability (NCI-H2126; first compound 0.04 µM): 1.16; relative viability (NCI-H2126; first compound 0.1265 µM): 1.13; relative viability (NCI-H2126; first compound 0.4 µM): 1.1; relative viability (NCI-H2126; first compound 1.265 µM): 1.02; relative viability (NCI-H2228; first compound 0.04 µM): 0.908; relative viability (NCI-H2228; first compound 0.1265 µM): 0.954; relative viability (NCI-H2228; first compound 0.4 µM): 1.32; relative viability (NCI-H2228; first compound 1.265 µM): 0.414; relative viability (NCI-H23; first compound 0.04 µM): 1.05; relative viability (NCI-H23; first compound 0.1265 µM): 1.21; relative viability (NCI-H23; first compound 0.4 µM): 0.958; relative viability (NCI-H23; first compound 1.265 µM): 1.11; relative viability (NCI-H2405; first compound 0.04 µM): 0.989; relative viability (NCI-H2405; first compound 0.1265 µM): 1.03; relative viability (NCI-H2405; first compound 0.4 µM): 0.916; relative viability (NCI-H2405; first compound 1.265 µM): 0.819; relative viability (NCI-H838; first compound 0.04 µM): 0.814; relative viability (NCI-H838; first compound 0.1265 µM): 1.32; relative viability (NCI-H838; first compound 0.4 µM): 0.703; relative viability (NCI-H838; first compound 1.265 µM): 0.714; relative viability (SK-LU-1; first compound 0.04 µM): 1.11; relative viability (SK-LU-1; first compound 0.1265 µM): 1.17; relative viability (SK-LU-1; first compound 0.4 µM): 1.15; relative viability (SK-LU-1; first compound 1.265 µM): 0.693; relative viability (UMC-11; first compound 0.04 µM): 0.747; relative viability (UMC-11; first compound 0.1265 µM): 0.764; relative viability (UMC-11; first compound 0.4 µM): 0.666; relative viability (UMC-11; first compound 1.265 µM): 0.519
